{"source": "patent US20200360400A1", "about": "“COMPOSITIONS AND METHODS FOR THE TREATMENT OF ADDICTION, PSYCHIATRIC DISORDERS, AND NEURODEGENERATIVE DISEASE” (Embera NeuroTherapeutics, Inc., priority 2017, published 2020)", "key": {"[1]": {"experiment": "Cocaine interaction crossover study: pharmacokinetics", "description": "This was a double-blind, placebo-controlled, randomized, crossover study of non-treatment-seeking subjects with cocaine use disorder (CUD). […] On the last day of each dosing week, subjects received 40 mg IV cocaine. Primary outcomes were safety and pharmacokinetics (PK).\n• Subjects: Non-treatment seeking subjects with cocaine use disorder, ages 21-55 • Design: Single center, randomized, double-blind (DB), placebo-controlled (PLB), 2-period crossover design • Dosing: • One week of dosing with MET/OX (EMB-001) and one week of placebo, separated by one-week washout (randomized, DB, counterbalanced) • 40 mg IV cocaine & saline infusions on 7th day of dosing of MET/OX and placebo • Dose of MET/OX: 720 mg MET & 24 mg OX, BID • Primary Objective: Safety of MET/OX when co-administered with cocaine • Secondary Objectives: • Effects of MET/OX on PK of cocaine • Effects of cocaine on PK of MET/OX • Exploratory Objective: • Effects of MET/OX on measures of craving and subjective effects produced by cocaine"}, "[2]": {"test_system": "adult male Wistar rats", "experiment": "Intravenous cocaine self-administration under a multiple, alternating schedule of food reinforcement and cocaine self-administration", "format": "in vivo, rat", "quoted_text": "Adult male Wistar rats were trained under a multiple, alternating schedule of cocaine and food self-administration. This schedule consisted of alternating periods of cocaine access and food reinforcement. In some instances, as described further below, three doses of cocaine (0.125, 0.25, or 0.50 mg/kg/infusion) were tested. Rats were also periodically trained with saline substitution (cocaine extinction) and food extinction during the same session.\nIn our model, rats were exposed to alternating 15-minute periods of access to cocaine self-administration and food reinforcement. Food was used to control for potential nonspecific, ataxis effects of the drugs and combinations.\nMore specifically, adult male Wistar rats were implanted with chronic jugular catheters. Following recovery from surgery, the rats were trained to respond under a multiple, alternating schedule of food reinforcement and cocaine self-administration. Food-maintained responding was used to control for the non-specific motor effects of the various treatments. During the food component of the schedule, the stimulus light located above the food response lever was illuminated to indicate the availability of food reinforcement. […] A 25-second timeout followed the delivery of each food pellet. During this timeout, the stimulus light was darkened and responses on the food lever were counted but had no scheduled consequences. Responding on the other (cocaine) lever during the food component also had no scheduled consequences. […] Following 15 minutes of access to food, all stimulus lights in the chamber were darkened for a 1-minute timeout. Following the timeout, the stimulus light above the cocaine response lever was illuminated to indicate the availability of cocaine (0.125, 0.25, or 0.5 mg/kg/infusion). […] A 20-second timeout period followed each infusion. […] After 15 minutes of access to cocaine and a 1-minute timeout, the rats were again allowed 15 minutes access to the food component of the schedule. Access to food and cocaine alternated in this manner every 15 minutes during the two hour behavioral sessions so that each rat was exposed to food and cocaine for four 15-minute periods each. Each behavioral session began with 15 minutes access to either food or cocaine, and this alternated daily. Stable baselines of responding were established when the total number of cocaine and food presentations, as well as the number of presentations during each of the four exposures each session, varied less than 10% for three consecutive sessions. At least three different doses of cocaine (e.g., 0.125, 0.25, and 0.5 mg/kg/infusion) were tested. Rats were first trained to self-administer 0.25 mg/kg/infusion, our standard dose of cocaine. When responding stabilized, the dose was changed to 0.125 or 0.5 mg/kg/infusion as appropriate.\nOnce stable baselines of responding were obtained, dose-response curves for the various compounds were individually generated for each rat. Rats were treated with each dose at least twice with a minimum of two days of baseline cocaine self-administration interspersed between each test. Each group of rats was tested with only two of the test compounds to minimize potential carryover effects. […] This rationale guided the selection of the doses of each of the compounds in the combination studies. Each experimental group consisted of between 8 and 10 rats."}, "[3]": {"test_system": "adult male Wistar rats", "experiment": "Cue-induced reinstatement of extinguished cocaine seeking", "format": "in vivo, rat", "conditions": "for reinstatement of extinguished cocaine seeking: pretreatment with the drug alone, general statement", "description": "The experiments described herein were designed to investigate whether or not drug combinations identified as effective in reducing cocaine self-administration would also block the ability of conditioned cues to reinstate extinguished cocaine-seeking behavior. Adult male Wistar rats were implanted with chronic jugular catheters and trained to self-administer cocaine (0.25 mg/kg/infusion) by pressing one of the response levers in the experimental chamber (i.e., the “active” or “cocaine” lever) under a fixed-ratio four (FR4) schedule of reinforcement during daily 2-hour sessions conducted 5 days per week. At the start of each session, both levers were extended into the chamber and the stimulus light above the active lever was illuminated to indicate the availability of cocaine. […] A 20-second timeout period followed each infusion. The stimulus light above the active lever and the house light and tone compound stimulus were extinguished during the timeout period, and the light above the active lever was illuminated once the timeout ended. When responding on the active lever varied less than 20% for two consecutive days, the response requirement was increased to FR2. When similar stability was observed under the FR2 schedule or reinforcement, the response requirement was increased to the final ratio of four. The criteria for stable responding under the FR4 schedule of reinforcement was a minimum of 10 days of exposure to this schedule that concluded with at least three consecutive days when responding varied by less than 10%. […] Once stable cocaine self-administration was observed, rats were exposed to extinction; the rats were placed into the behavioral chambers, but responding on the “cocaine” (active) lever produced no programmed consequences. Extinction training continued until responding decreased to less than 20% of baseline self-administration. Then reinstatement testing commended. The rats were placed into the experimental chambers, both response levers were extended into the chamber, and the stimulus light above the “active” lever was illuminated as during self-administration training. […] Responding on the “active” lever during reinstatement testing was taken as an index of cocaine-seeking behavior. Each experimental group consisted of 8 to 10 rats."}, "[4]": {"conditions": "rat, in vivo", "description": "Adult male Wistar rats (90 to 120 days old) were implanted with chronic, indwelling jugular catheters and were allowed to recover from surgery. […] Thirty minutes following the drug combination or vehicle injection, the rats received intravenous injections of cocaine (0.25 mg/kg/infusion) every 2 minutes for 1 hour. After the final injection of cocaine, blood was collected from the catheter for the analysis of cocaine and its metabolites ecgonine methyl ester and benzoylecgonine. […] All drug concentrations were determined using GCMS procedures."}, "[5]": {"test_system": "male Wistar rats", "experiment": "Cocaine self-administration following adrenalectomy, with plasma CORT and ACTH", "format": "in vivo, rat", "quoted_text": "Subjects: Male Wistar rats were housed in an AALAC-approved animal care facility and maintained at 85-90% of their free-feeding body weights. These rats were on a reversed 12-hour light, 12-hour dark cycle from the beginning of the experimental procedures.\nCatheter surgery: A chronic indwelling jugular catheter (0.012 in i.d.×0.025 in o.d., silicone tubing) was implanted in each rat under pentobarbital anesthesia (50 mg/kg ip) with methyl atropine nitrate pretreatment (10 mg/kg ip). The animals were injected with sterile penicillin G procaine suspension (75,000 units, im) immediately before surgery and allowed 5-7 days to recover.\nAdrenalectomy surgery: Animals were anesthetized with pentobarbital (50 mg/kg ip) with methyl atropine nitrate pretreatment (10 mg/kg ip). The adrenal glands were located through an incision and removed. The animals were injected with sterile penicillin G procaine suspension (75,000 units, im) and allowed to recover from surgery for 7 days. After ADX, the rats received drinking water containing 0.9% saline and 1.0% sucrose. Animals in the SHAM group received the same surgery except that the adrenal glands were not removed. They continued to receive tap water to drink.\nEquipment: Sound-attenuating operant conditioning chambers (Med-Associates, Inc.) were equipped with two response levers and a stimulus light located directly above each lever. A food pellet dispenser was located between the levers. […] An IBM-compatible personal computer and interface system was used to program the procedure and collect the experimental data.\nAlternating Schedule of Cocaine and Food Reinforcement: Following recovery from catheter surgery, the rats were trained to respond under a multiple, alternating schedule of food reinforcement and cocaine self-administration. […]\nHormone Measurements: Blood was collected via the implanted catheters at the end of the behavioral test sessions for the measurement of plasma CORT and adrenocorticotropin releasing hormone (ACTH). […] Plasma CORT and ACTH (ng/ml) were subsequently determined by radioimmunoassay."}, "[6]": {"test_system": "male Wistar rats", "experiment": "Forced Swim Test (FST), animal model of depression"}, "[7]": {"test_system": "Wistar-derived male rats", "experiment": "Intravenous nicotine self-administration, fixed-ratio schedule (FR1, TO-20 s)", "format": "in vivo, rat", "quoted_text": "Animals: Wistar-derived male rats (250-300 g) were purchased from Harlan Laboratories (Livermore, Calif.), housed in groups of two, and maintained in a temperature-controlled environment on a 12 h:12 h light cycle. Before testing, animals were provided free access to food and water during a one-week habituation period, and were handled daily for several days to desensitize them to handling stress. Each rat included in the data analysis received all treatments in order to obtain reliable estimates of drug effects and decrease the impact of inter-animal variability. Animals were handled, housed, and sacrificed in accord with the current NIH guidelines and all applicable local, state, and federal regulations and guidelines.\nVarenicline-HCl (Ontario Chemicals), at 1 mg/kg (expressed as free base), was used as a positive control and administered subcutaneously. Nicotine hydrogen tartrate (Sigma Aldrich) was dissolved in isotonic saline at 0.3 mg/mL (expressed as free base), adjusted to pH 7.0, and diluted to deliver 0.03 mg/kg/infusion. All test compounds were administered 30 minutes prior to nicotine self-administration sessions in a volume of 1 mL/kg.\nApparatus: Food training and nicotine self-administration took place in 8 standard Coulbourn™ operant conditioning chambers. Each chamber was housed in a sound-attenuating chamber. […]"}, "[8]": {"conditions": "smoking cessation (Nides et al. 2006); cited from earlier work"}, "[9]": {"conditions": "after 40 mg IV cocaine, + EMB-001"}, "[10]": {"conditions": "after 40 mg IV cocaine, + Placebo"}, "[11]": {"conditions": "high dose of the drug alone, ip"}, "[12]": {"conditions": "low, ineffective dose of the drug alone, ip"}, "[13]": {"conditions": "pretreatment with the drug alone, general statement"}}, "note": "Entries after “also recorded” stand apart in the source; their conditions may differ."}
{"smiles": "CN1[C@H]2CC[C@@H]1[C@@H](C(=O)O)[C@@H](OC(=O)c1ccccc1)C2", "note": "[Benzoylecgonine, benzoylecgonine]", "values": [{"measurement": "AUC 0-∞", "setting": "[1]; [9]", "result": "3080 ± 689", "unit": "ng·h/mL"}, {"measurement": "Cmax", "setting": "[1]; [9]", "result": "198 ± 55", "unit": "ng/mL"}, {"measurement": "AUC 0-∞", "setting": "[1]; [10]", "result": "2970 ± 720", "unit": "ng·h/mL"}, {"measurement": "Cmax", "setting": "[1]; [10]", "result": "199 ± 45", "unit": "ng/mL"}]}
{"smiles": "CCCCN(CC)c1nc(C)nc2c1c(C)cn2-c1c(C)cc(C)cc1C", "note": "[CP-154,526]", "values": [{"measurement": "cocaine self-administration (number of cocaine infusions)", "setting": "[2]; [11]", "result": "reduced cocaine self-administration"}, {"measurement": "food-maintained responding", "setting": "[2]; [11]", "result": "without affecting food-maintained responding"}, {"measurement": "cocaine self-administration (number of cocaine infusions)", "setting": "[2]; [12]", "result": "did not significantly affect"}, {"measurement": "food-maintained responding", "setting": "[2]; [12]", "result": "did not significantly affect"}, {"measurement": "cocaine self-administration", "setting": "[2]; [13]", "result": "decrease"}, {"measurement": "reinstatement of extinguished cocaine seeking", "setting": "[3]", "result": "decrease"}]}
{"smiles": "COC(=O)[C@@H]1[C@H]2CC[C@@H](C[C@@H]1O)N2C", "note": "[Ecgonine Methyl Ester, ecgonine methyl ester]", "values": [{"measurement": "AUC 0-∞", "setting": "[1]; [9]", "result": "244 ± 50", "unit": "ng·h/mL"}, {"measurement": "Cmax", "setting": "[1]; [9]", "result": "20.5 ± 3.7", "unit": "ng/mL"}, {"measurement": "AUC 0-∞", "setting": "[1]; [10]", "result": "234 ± 45", "unit": "ng·h/mL"}, {"measurement": "Cmax", "setting": "[1]; [10]", "result": "21.5 ± 3.7", "unit": "ng/mL"}]}
{"smiles": "Cc1nnc2n1-c1ccc(Cl)cc1C(c1ccccc1)=NC2", "note": "[alprazolam]", "values": [{"measurement": "cocaine self-administration (number of cocaine infusions)", "setting": "[2]; [11]", "result": "reduced cocaine self-administration"}, {"measurement": "food-maintained responding", "setting": "[2]; [11]", "result": "without affecting food-maintained responding"}, {"measurement": "cocaine self-administration (number of cocaine infusions)", "setting": "[2]; [12]", "result": "did not significantly affect"}, {"measurement": "food-maintained responding", "setting": "[2]; [12]", "result": "did not significantly affect"}, {"measurement": "cocaine self-administration", "setting": "[2]; [13]", "result": "decrease"}, {"measurement": "reinstatement of extinguished cocaine seeking", "setting": "[3]", "result": "decrease"}]}
{"smiles": "CC(=O)N1CCN(c2ccc(OCC3COC(Cn4ccnc4)(c4ccc(Cl)cc4Cl)O3)cc2)CC1", "note": "(stereo not drawn) [ketoconazole]", "values": [{"measurement": "minimally effective dose (reduces cocaine self-administration by at least 50% without affecting food-maintained responding)", "setting": "[2]; drug alone", "result": 25, "unit": "mg/kg"}, {"measurement": "cocaine self-administration (number of cocaine infusions)", "setting": "[2]; [12]", "result": "no effect; also recorded: did not significantly affect"}, {"measurement": "food-maintained responding", "setting": "[2]; [12]", "result": "no effect; also recorded: did not significantly affect"}, {"measurement": "cocaine self-administration", "setting": "[2]; [13]", "result": "decrease"}, {"measurement": "reinstatement of extinguished cocaine seeking", "setting": "[3]", "result": "decrease"}]}
{"smiles": "CC(C)(c1cccnc1)C(O)c1cccnc1", "note": "(stereo not drawn) [metyrapol]", "values": [{"measurement": "food-maintained responding", "setting": "[2]; 25, 50, 100 and 150 mg/kg ip 30 min before", "result": "not significantly affected except at the highest doses"}, {"measurement": "cocaine self-administration", "setting": "[2]; 25, 50, 100 and 150 mg/kg ip 30 min before, cocaine 0.125, 0.25, 0.5 mg/kg/infusion", "result": "dose dependently decreased"}, {"measurement": "AUC 0-∞", "setting": "[1]; human, in vivo", "result": "5480 ± 4840", "unit": "ng·h/mL"}, {"measurement": "Cmax", "setting": "[1]; human, in vivo", "result": "1850 ± 1570", "unit": "ng/mL"}]}
{"smiles": "CC(C)(C(=O)c1cccnc1)c1cccnc1", "note": "[metyrapone]", "values": [{"measurement": "cocaine self-administration (number of cocaine infusions)", "setting": "[2]; [11]", "result": "reduced cocaine self-administration"}, {"measurement": "food-maintained responding", "setting": "[2]; [11]", "result": "without affecting food-maintained responding"}, {"measurement": "cocaine self-administration (number of cocaine infusions)", "setting": "[2]; [12]", "result": "did not significantly affect"}, {"measurement": "food-maintained responding", "setting": "[2]; [12]", "result": "did not significantly affect"}, {"measurement": "plasma corticosterone", "setting": "[2]; pretreatment with the drug alone", "result": "significant dose-related decreases"}, {"measurement": "cocaine self-administration", "setting": "[2]; [13]", "result": "decrease; also recorded: significant dose-related decreases"}, {"measurement": "cue-induced reinstatement (responding on the active lever)", "setting": "[3]; chronic, 50 mg/kg, ip, once per day for 14 days", "result": "reduced cocaine seeking to levels seen when only saline was delivered"}, {"measurement": "reinstatement of extinguished cocaine seeking", "setting": "[3]", "result": "decrease"}, {"measurement": "plasma concentration in the presence of cocaine", "setting": "[4]", "result": "did not affect"}, {"measurement": "influence on plasma concentration of the other drug", "setting": "[4]; ip", "result": "did not influence"}, {"measurement": "blocking cocaine self-administration following adrenalectomy compared to pre-adrenalectomy values", "setting": "[5]; MET 50, OX 5, OX 10 mg/kg and combinations", "result": "as effective, and possibly even more effective"}, {"measurement": "plasma ACTH", "setting": "[5]; before adrenalectomy", "result": "not changed"}, {"measurement": "plasma corticosterone", "setting": "[5]; before adrenalectomy", "result": "not changed"}, {"measurement": "AUC 0-∞", "setting": "[1]; human, in vivo", "result": "900 ± 492", "unit": "ng·h/mL"}, {"measurement": "Cmax", "setting": "[1]; human, in vivo", "result": "429 ± 234", "unit": "ng/mL"}, {"measurement": "immobility in the FST", "setting": "[6]; acute and chronic administration, alone and in combination, oxazepam 5 or 10, metyrapone 25 or 50 mg/kg", "result": "effective in reducing immobility"}, {"measurement": "immobility time", "setting": "[6]; chronic, metyrapone 50 mg/kg alone (Met50 group)", "result": "showed a lessening of immobility time"}, {"measurement": "group means of immobility time relative to vehicle (tolerance)", "setting": "[6]; chronically treated groups that received only Ox or Met", "result": "equal to or exceeded the vehicle"}]}
{"smiles": "NCc1cc(=O)[nH]o1", "note": "[muscimol]", "values": [{"measurement": "cocaine self-administration (number of cocaine infusions)", "setting": "[2]; [11]", "result": "reduced cocaine self-administration"}, {"measurement": "food-maintained responding", "setting": "[2]; [11]", "result": "without affecting food-maintained responding"}, {"measurement": "cocaine self-administration (number of cocaine infusions)", "setting": "[2]; [12]", "result": "did not significantly affect"}, {"measurement": "food-maintained responding", "setting": "[2]; [12]", "result": "did not significantly affect"}]}
{"smiles": "c1cnc2cc3c(cc2n1)[C@@H]1CNC[C@H]3C1", "note": "[varenicline]", "values": [{"measurement": "nicotine infusions over the 1-hour test session", "setting": "[7]; 1 mg/kg sc, reduced from 15.4±1.0", "result": "7.7±1.2"}, {"measurement": "reduction of nicotine self-administration, varenicline compared with the metyrapone:oxazepam combination", "setting": "[7]; fixed-ratio schedule", "result": "comparable to those seen with the lowest dose of the combination"}, {"measurement": "quit rates after one year", "setting": "[8]", "result": 14, "unit": "%"}]}
